{"source": "paper PMC9848259", "about": "(Journal of Enzyme Inhibition and Medicinal Chemistry, 2023)", "assay": "in vitro", "type": "cell-based", "conditions": "human, human hepatic stellate cells (HSCs), read-out: cell viability (hepatotoxicity, MTT)", "description": "Human hepatic stellate cells (HSCs, Sciencell) were grown in the Stellate Cell Medium (Sciencell) supplemented with 2% Foetal Bovine Serum (Sciencell), 1% Stellate Cell Growth Supplement (Sciencell) and 1% penicillin/streptomycin solution (Sciencell). The cells were cultured in the incubator at 37 °C and 5% CO2. To start the experiment, the cells were seeded at a density of 5 × 10^3 cells/well in 96-well plates and incubated (37 °C, 5% CO2) for 24 h. After incubation, medium was removed from the wells and the cells were exposed to 100 µl of the compound over a range of concentrations (from 0.1 to 10 µM) or 100 µl of culture medium alone (blank control). The cells were then further incubated for 24 h. After this time, the medium was removed, the cells were washed with PBS and 50 µl of MTT solution (0.75 mg/ml) was added to each well. The plates were incubated in the dark at 37 °C for another two hours. The MTT solution was then removed from the wells and 100 µl of DMSO was added. The plates were incubated at room temperature for 10 min and then 5 µl of Sorensen Buffer was added to each well. The plates were swayed and the absorbance at 570 nm was measured with a microplate reader (Synergy H1, BioTek, Winooski, VT, USA). The cell viability was expressed as a percentage of the control values (blank control)[40]^,[46]^,[47]."}
{"smiles": "O=C(NCCCCCCNc1c2c(nc3ccccc13)CCC2)c1cc(Cl)cc(Cl)c1", "note": "[Compound 3e]", "values": [{"measurement": "viability at 24 h, 0.1 µM", "setting": "0.1 µM", "result": 102, "unit": "%"}, {"measurement": "viability at 24 h, 1 µM", "setting": "1 µM", "result": 100, "unit": "%"}, {"measurement": "viability at 24 h, 10 µM", "setting": "10 µM", "result": 97.3, "unit": "%"}]}
